Laboratory results: PMC5385157 (Neuropharmacology, 2016)
Several values for one entry are separate records, joined by “and”; a condition that tells them apart may be missing. Equal entries are not always repeated. Where two headings read alike, the source gives them in different places.

Assays:
[1] = system: α2AAR-mediated activation of the ERK1/2 MAP kinase pathway; assay: Western blot for phospho-ERK1/2 in WT MEF cells; assay type: cell-based, murine; settings: 1 µM
α2AAR/Arr3 interaction = α2AAR/Arr3 interaction (Mus musculus, UniProt Q01338); settings: 1 µM, live HEK 293 cells
HA-α2AAR [2] = molecular target: T1, HA-α2AAR (Mus musculus, UniProt Q01338); settings: 1 µM
T1 sequence (Q01338 1-465): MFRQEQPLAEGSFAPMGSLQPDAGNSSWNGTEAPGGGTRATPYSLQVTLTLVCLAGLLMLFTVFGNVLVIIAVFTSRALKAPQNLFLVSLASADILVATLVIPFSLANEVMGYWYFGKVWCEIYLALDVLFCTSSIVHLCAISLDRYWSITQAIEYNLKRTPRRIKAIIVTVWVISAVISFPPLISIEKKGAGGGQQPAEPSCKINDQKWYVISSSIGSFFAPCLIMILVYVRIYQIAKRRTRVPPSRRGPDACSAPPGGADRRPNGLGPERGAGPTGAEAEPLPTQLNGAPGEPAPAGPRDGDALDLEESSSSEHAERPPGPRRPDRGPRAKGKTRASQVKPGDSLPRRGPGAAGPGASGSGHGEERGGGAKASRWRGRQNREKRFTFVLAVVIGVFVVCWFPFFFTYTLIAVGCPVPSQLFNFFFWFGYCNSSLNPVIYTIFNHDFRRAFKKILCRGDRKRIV

HA-α2AAR [3] = molecular target: T1, HA-α2AAR; settings: 1 µM, 30 min
[4] = clinical blood plasma level; ref Baldessarini and Tarazi (2006); cited from earlier work
human α2AAR = settings: ref NIMH Psychoactive Drug Screening Program (PDSP) Ki Database, cited from earlier work
α2AAR = molecular target: T2, α2AAR (Mus musculus, UniProt Q01338); assay: cAMP assay; assay type: cell-based, murine; settings: ligand 10 µM, 10 µM forskolin, 20 min
T2 sequence (Q01338 1-465): T1 sequence (Q01338 1-465)

α2AAR/Arr3 interaction, sequence (P32121 whole entry partner, one chain of several): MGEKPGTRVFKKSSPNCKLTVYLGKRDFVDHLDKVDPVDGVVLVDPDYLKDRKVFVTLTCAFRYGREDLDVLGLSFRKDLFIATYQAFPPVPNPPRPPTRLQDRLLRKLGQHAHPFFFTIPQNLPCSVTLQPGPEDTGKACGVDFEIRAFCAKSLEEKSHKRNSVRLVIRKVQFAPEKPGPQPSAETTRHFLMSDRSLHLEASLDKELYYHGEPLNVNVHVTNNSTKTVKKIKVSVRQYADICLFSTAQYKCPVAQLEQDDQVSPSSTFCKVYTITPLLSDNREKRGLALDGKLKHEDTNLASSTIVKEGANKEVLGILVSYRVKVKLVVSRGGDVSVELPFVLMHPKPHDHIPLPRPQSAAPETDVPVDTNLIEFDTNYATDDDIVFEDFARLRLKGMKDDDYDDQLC

In the case of CN1CCN(C2=Nc3cc(Cl)ccc3Nc3ccccc32)CC1 [Clozapine, clozapine], the “ERK1/2 activation (pERK1/2)” value [1] is reported as “unable to detect any ERK1/2 activation”.
In the case of CN(C)CCCN1c2ccccc2Sc2ccc(Cl)cc21 [Chlorpromazine, chlorpromazine], the “α2AAR/Arr3 interaction (FLIM-FRET efficiency)” value (α2AAR/Arr3 interaction) is reported as “robust α2AAR/Arr3 interaction”, the “receptor loss from the cell surface” value (HA-α2AAR [2]; WT MEF cells) is reported as ~30% and the “α2AAR endocytic response in arrestin-null (Arr2,3−/−) MEF cells” value (HA-α2AAR [2]; 5, 10, 30 min) is reported as “lost”. For the same compound, the “α2AAR endocytosis (intracellular punctae)” value (HA-α2AAR [3]) was “robust α2AAR endocytosis”, the Therapeutic range [4] was 90 to 2350 nM and the Ki (human α2AAR; read-out: Reported values at human α2AAR, Avg.) was 251 nM. The Ki (human α2AAR; read-out: Reported values at human α2AAR, Range) was 78 to 558 nM.
For NC[C@H](O)c1ccc(O)c(O)c1 [NE, norepinephrine], the “Gαi-mediated inhibition of cAMP production” value (α2AAR) was ~50%.
In the case of OCCN1CCN(CCCN2c3ccccc3Sc3ccc(C(F)(F)F)cc32)CC1 [Fluphenazine, fluphenazine], the Therapeutic range [4] is given as 20–100 ng/ml and 50–230 nM.
